Measurements as given in ChEMBL document CHEMBL1833862, “Synthesis and biological evaluation of novel 2-arylamino-3-(arylsulfonyl)quinoxalines as PI3Kα inhibitors” (Eur J Med Chem, 2011).
Activity calls are given as the source filed them. The calls are words filed in the database; no cut-off is given here.

Experiments:
[1] = system: HL-60; assay: Cytotoxicity against human HL60 cells after 72 hrs by MTT assay; type: functional, cell-based; settings: HL-60, 72 h
[2] = system: PC-3; assay: cells; settings: Homo sapiens, PC-3, 72 h
Description: Cytotoxicity against human PC3 cells after 72 hrs by MTT assay

[3] = system: HCT-116; assay: cells; settings: Homo sapiens, HCT-116, 72 h
[4] = system: KB; assay: Cytotoxicity against human KB cells after 72 hrs by MTT assay; type: functional, cell-based
[5] = system: A549; assay: Cytotoxicity against human A549 cells after 72 hrs by MTT assay; type: functional, cell-based; settings: A549, 72 h
[6] = target: T1, Phosphatidylinositol 4,5-bisphosphate 3-kinase catalytic subunit alpha isoform (Homo sapiens, UniProt P42336); assay: Inhibition of human recombinant PI3Kalpha assessed as production of 3,4,5-inositoltriphosphate after 3 hrs by fluorescence polarization assay
[7] = target: T1, Phosphatidylinositol 4,5-bisphosphate 3-kinase catalytic subunit alpha isoform; assay: Inhibition of PI3K in human PC3 cells assessed as suppression of Akt Ser473 phosphorylation at 10 uM after 3 hrs by SDS-PAGE and Western blot analysis; type: cell-based; settings: PC-3

T1 sequence (P42336 whole entry, canonical isoform): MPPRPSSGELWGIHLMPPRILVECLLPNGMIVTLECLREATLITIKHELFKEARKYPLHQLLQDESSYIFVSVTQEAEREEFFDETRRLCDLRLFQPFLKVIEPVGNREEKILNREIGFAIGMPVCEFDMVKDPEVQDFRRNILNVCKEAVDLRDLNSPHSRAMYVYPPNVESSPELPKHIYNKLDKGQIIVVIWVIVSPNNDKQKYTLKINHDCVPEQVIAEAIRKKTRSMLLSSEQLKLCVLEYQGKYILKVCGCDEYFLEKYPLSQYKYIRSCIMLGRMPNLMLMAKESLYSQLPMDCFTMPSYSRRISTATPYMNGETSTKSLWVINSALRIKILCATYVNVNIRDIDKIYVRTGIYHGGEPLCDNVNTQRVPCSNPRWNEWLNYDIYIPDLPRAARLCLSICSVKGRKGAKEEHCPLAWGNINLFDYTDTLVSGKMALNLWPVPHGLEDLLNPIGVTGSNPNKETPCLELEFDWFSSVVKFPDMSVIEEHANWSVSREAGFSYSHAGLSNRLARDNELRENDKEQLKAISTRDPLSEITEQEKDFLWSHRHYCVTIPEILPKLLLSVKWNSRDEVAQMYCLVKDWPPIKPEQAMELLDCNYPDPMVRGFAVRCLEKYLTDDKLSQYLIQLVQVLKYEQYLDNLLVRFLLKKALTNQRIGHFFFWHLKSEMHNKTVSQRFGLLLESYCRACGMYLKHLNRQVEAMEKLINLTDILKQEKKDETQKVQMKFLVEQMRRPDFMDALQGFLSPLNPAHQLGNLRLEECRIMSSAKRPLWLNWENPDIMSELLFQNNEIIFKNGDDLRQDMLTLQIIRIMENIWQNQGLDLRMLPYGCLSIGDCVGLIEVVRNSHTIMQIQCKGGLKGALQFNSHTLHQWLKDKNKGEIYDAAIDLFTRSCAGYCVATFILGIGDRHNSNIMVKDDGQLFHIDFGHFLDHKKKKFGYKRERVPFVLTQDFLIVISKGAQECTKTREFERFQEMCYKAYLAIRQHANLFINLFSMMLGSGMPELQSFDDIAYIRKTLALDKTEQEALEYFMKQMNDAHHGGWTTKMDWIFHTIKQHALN

Row | Structure (SMILES) | IC50 [1] [µM] | IC50 [2] [µM] | IC50 [3] [µM] | IC50 [4] [µM] | IC50 [5] [µM] | IC50 [6] [µM] | inhibition [7]
1 | Cc1ccc(S(=O)(=O)c2nc3ccccc3nc2Nc2ccc(N)cc2)cc1 | 1.22 | 5 | 11.5 | 5.63 | 24.6 |  | 
2 | COc1ccc(S(=O)(=O)c2nc3ccccc3nc2Nc2ccc(N)cc2)cc1 | 0.71 | 9.64 | 6.3 | 17.8 | 2.99 |  | 
3 | O=S(=O)(c1ccc(Br)cc1)c1nc2ccccc2nc1Nc1ccccc1 | 0.13 | 1.18 | 1.11 | 5.1 | 10.8 |  | 
4 | COc1ccc(S(=O)(=O)c2nc3ccccc3nc2Nc2ccccc2)cc1 | 0.26 | 1.26 | 1.26 | 9.89 | 13.2 |  | 
5 | COc1cc(Nc2nc3ccccc3nc2S(=O)(=O)c2ccccc2)cc(OC)c1 | 0.05 | 0.14 | 0.95 |  | 0.07 | 0.07 | 
6 | O=S(=O)(c1ccc(Br)cc1)c1nc2ccccc2nc1Nc1cccc(O)c1 | 0.2 | 1.7 | 0.54 | 8.41 | 8 | 0.47 | 
7 | COc1ccc(Nc2nc3ccccc3nc2S(=O)(=O)c2ccccc2)cc1 | 0.64 | 1.51 | 2.42 |  | 11.9 |  | 
8 | O=S(=O)(c1ccccc1)c1nc2ccccc2nc1Nc1cccc(O)c1 | 0.22 | 1.68 | 1.15 | 8.42 | 5.73 | > 1 | 
9 | Nc1ccc(Nc2nc3ccccc3nc2S(=O)(=O)c2ccc(Br)cc2)cc1 | 0.73 | 2.33 | 1.39 | 4.08 | 1.02 |  | Active
10 | COc1ccc(S(=O)(=O)c2nc3ccccc3nc2Nc2cc(OC)cc(OC)c2)cc1 | 1.71 | 6.22 | 13.4 |  | 12.7 |  | 
11 | O=S(=O)(c1ccccc1)c1nc2ccccc2nc1Nc1ccc(C(F)(F)F)cc1 | 0.3 | 3.55 | 2.09 | > 50 | > 50 |  | 
12 | COc1ccc(S(=O)(=O)c2nc3ccccc3nc2Nc2cccc(O)c2)cc1 | 0.14 | 1.63 | 0.82 | 8.27 | 6.11 | > 1 | 
13 | COc1ccc(Nc2nc3ccccc3nc2S(=O)(=O)c2ccc(OC)cc2)cc1 | 1.19 | 8.71 | 29.1 |  | 8.26 |  | 
14 | COc1ccc(S(=O)(=O)c2nc3ccccc3nc2Nc2cccc(N)c2)cc1 | 1.49 | 8.6 | 3.71 | 4.96 | 0.34 |  | 
15 | O=S(=O)(c1ccc(Br)cc1)c1nc2ccccc2nc1Nc1ccc(F)cc1 | 0.26 | 9.16 | 1.67 | 2.28 | 4.36 |  | 
16 | COc1cc(Nc2nc3ccccc3nc2S(=O)(=O)c2ccc(F)cc2)cc(OC)c1OC | 4.79 | > 50 | 3.11 |  | > 50 |  | 
17 | COc1ccc(S(=O)(=O)c2nc3ccccc3nc2Nc2ccc(F)cc2)cc1 | 0.61 | 2.2 | 2.11 | 2.59 | 1.24 |  | 
18 | COc1cc(Nc2nc3ccccc3nc2S(=O)(=O)c2ccccc2)cc(OC)c1OC | 1.77 | 29.1 | > 50 |  | 9.66 |  | 
19 | Nc1ccc(Nc2nc3ccccc3nc2S(=O)(=O)c2ccc(F)cc2)cc1 | 1.62 | 2.05 | 10.1 |  | 12.7 |  | 
20 | COc1cc(Nc2nc3ccccc3nc2S(=O)(=O)c2ccc(Br)cc2)cc(OC)c1OC | 1.02 | 19.8 | 13 |  | 6.11 |  | 
21 | O=S(=O)(c1ccccc1)c1nc2ccccc2nc1Nc1ccc(F)cc1 | 1.01 | 14.2 | 5.19 | > 50 | > 50 |  | 
22 | Cc1ccc(S(=O)(=O)c2nc3ccccc3nc2Nc2ccc(C(F)(F)F)cc2)cc1 | 0.27 | 2.54 | 0.95 | 10.3 | 13.5 |  | 
23 | Cc1ccc(S(=O)(=O)c2nc3ccccc3nc2Nc2cccc(N)c2)cc1 | 1.08 | 2 | 2.39 | 10.6 | 1.95 |  | 

Row | Structure (SMILES) | IC50 [1] [µM] | IC50 [2] [µM] | IC50 [3] [µM] | IC50 [4] [µM] | IC50 [5] [µM] | IC50 [6] [µM] | inhibition [7]
24 | COc1cc(Nc2nc3ccccc3nc2S(=O)(=O)c2ccc(F)cc2)cc(OC)c1 | 2.36 | 4.53 | 3.93 |  | 5.45 |  | 
25 | Cc1ccc(S(=O)(=O)c2nc3ccccc3nc2Nc2ccccc2)cc1 | 0.4 | 1.06 | 1.07 | 19 | 12.5 |  | 
26 | O=S(=O)(c1ccccc1)c1nc2ccccc2nc1Nc1ccccc1 | 0.14 | 0.59 | 1.63 | 22.6 | 26.3 |  | 
27 | COc1ccc(Nc2nc3ccccc3nc2S(=O)(=O)c2ccc(C)cc2)cc1 | 2.79 | > 50 | > 50 |  | > 50 |  | 
28 | COc1cc(Nc2nc3ccccc3nc2S(=O)(=O)c2ccc(Br)cc2)cc(OC)c1 | 2.54 | 18.2 | > 50 |  | 15.8 |  | 
29 | Nc1cccc(Nc2nc3ccccc3nc2S(=O)(=O)c2ccccc2)c1 | 1.75 | 2.15 | 1.54 | 4.29 | 1.59 |  | 
30 | Cc1ccc(S(=O)(=O)c2nc3ccccc3nc2Nc2ccc(Cl)cc2)cc1 | 17.5 | 9.66 | 2.05 | 13.8 | 54.2 |  | 
31 | O=S(=O)(c1ccc(Br)cc1)c1nc2ccccc2nc1Nc1ccc(C(F)(F)F)cc1 | 0.28 | 4.15 | 2.61 | > 50 | > 50 |  | 
32 | COc1cc(Nc2nc3ccccc3nc2S(=O)(=O)c2ccc(C)cc2)cc(OC)c1 | 0.02 | 2.94 | > 50 |  | 8.06 |  | Active
33 | Nc1ccc(Nc2nc3ccccc3nc2S(=O)(=O)c2ccccc2)cc1 | 8.72 | 5.83 | 10.8 | 3.4 | 12.8 |  | 
34 | COc1ccc(S(=O)(=O)c2nc3ccccc3nc2Nc2cc(OC)c(OC)c(OC)c2)cc1 | 0.68 | 7.85 | > 50 |  | 5.17 |  | 
35 | COc1cc(Nc2nc3ccccc3nc2S(=O)(=O)c2ccc(C)cc2)cc(OC)c1OC | 0.32 | 4.85 | 10.8 |  | 5.61 |  | 
36 | COc1ccc(Nc2nc3ccccc3nc2S(=O)(=O)c2ccc(F)cc2)cc1 | 1.2 | 4.33 | 3.01 |  | 4.84 |  | 
37 | Cc1ccc(S(=O)(=O)c2nc3ccccc3nc2Nc2cccc(O)c2)cc1 | 0.4 | 1.69 | 3.81 | 5.35 | 6.08 | > 1 | 
38 | COc1ccc(S(=O)(=O)c2nc3ccccc3nc2Nc2ccc(Cl)cc2)cc1 | 19.6 | 31.8 | 26.5 | 49.8 | 87.3 |  | 
39 | Nc1cccc(Nc2nc3ccccc3nc2S(=O)(=O)c2ccc(Br)cc2)c1 | 1.37 | 9.01 | 3.28 | 5.34 | 1.12 |  | 
40 | O=S(=O)(c1ccc(Br)cc1)c1nc2ccccc2nc1Nc1ccc(Cl)cc1 | 16.4 | 7.46 | 10.6 | 11.6 | 61.4 |  | 
41 | COc1ccc(Nc2nc3ccccc3nc2S(=O)(=O)c2ccc(Br)cc2)cc1 | 1.19 | 1.11 | 3.4 |  | 3.34 |  | 
42 | O=c1cc(N2CCOCC2)oc2c(-c3ccccc3)cccc12 [LY-294002] | 9.94 | 61.4 | 56 | 44.8 | 89.7 |  | 
43 | O=S(=O)(c1ccccc1)c1nc2ccccc2nc1Nc1ccc(Cl)cc1 | 1.92 | 15.3 | 2 | 41.2 | 30.7 |  | 
44 | Nc1cccc(Nc2nc3ccccc3nc2S(=O)(=O)c2ccc(F)cc2)c1 | 4.04 | 1.98 | 6.79 |  | 6.84 |  | 
45 | Cc1ccc(S(=O)(=O)c2nc3ccccc3nc2Nc2ccc(F)cc2)cc1 | 5.1 | 13.1 | 10.5 | 8.95 | 39.2 |  | 
46 | COc1ccc(S(=O)(=O)c2nc3ccccc3nc2Nc2ccc(C(F)(F)F)cc2)cc1 | 0.22 | 0.33 | 0.11 | 0.89 | 4.81 |  | 
